Experiments:
[1] = Effects of UV light on isomerization (Example 4); format: physicochemical; details: room temperature
estrogen receptors = details: in vitro; cited from earlier work
[2] = in vivo; cited from earlier work
[3] = 254 nm, T0, degradation impurity (phenanthrene derivative)

Structure (SMILES): CCC(=C(c1ccc(O)cc1)c1ccc(OCCN(C)C)cc1)c1ccccc1 [4-hydroxy tamoxifen, 1-[4-(2-N-dimethylaminoethoxy)phenyl]-1-(4-hydroxyphenyl)-2-phenylbut-1-ene]
- % E ([1]; 254 nm, 5 min): 3.0%
- % Z ([1]; 254 nm, 5 min): 91.5%
- % imp 1 ([1]; 254 nm, 5 min): 0.0%
- % imp 2 ([1]; 254 nm, 5 min): 5.5%
- % E ([1]; 254 nm, 10 min): 3.1%
- % Z ([1]; 254 nm, 10 min): 90.5%
- % imp 1 ([1]; 254 nm, 10 min): 0.0%
- % imp 2 ([1]; 254 nm, 10 min): 6.3%
- % E ([1]; 254 nm, 15 min): 3.5%
- % Z ([1]; 254 nm, 15 min): 86.5%
- % imp 1 ([1]; 254 nm, 15 min): 1.3%
- % imp 2 ([1]; 254 nm, 15 min): 8.7%
- % E ([1]; 254 nm, 30 min): 5.7%
- % Z ([1]; 254 nm, 30 min): 74.4%
- % imp 1 ([1]; 254 nm, 30 min): 4.3%
- % imp 2 ([1]; 254 nm, 30 min): 15.6%
- % E ([1]; 254 nm, 45 min): 6.7%
- % Z ([1]; 254 nm, 45 min): 65.1%
- % imp 1 ([1]; 254 nm, 45 min): 7.8%
- % imp 2 ([1]; 254 nm, 45 min): 20.4%
- % E ([1]; 254 nm, 1 h): 7.2%
- % Z ([1]; 254 nm, 1 h): 56.6%
- % imp 1 ([1]; 254 nm, 1 h): 10.2%
- % imp 2 ([1]; 254 nm, 1 h): 26.0%
- % E ([1]; 254 nm, 1 h 15): 7.5%
- % Z ([1]; 254 nm, 1 h 15): 52.7%
- % imp 1 ([1]; 254 nm, 1 h 15): 11.4%
- % imp 2 ([1]; 254 nm, 1 h 15): 28.4%
- % E ([1]; 254 nm, 1 h 30): 8.2%
- % Z ([1]; 254 nm, 1 h 30): 43.5%
- % imp 1 ([1]; 254 nm, 1 h 30): 14.0%
- % imp 2 ([1]; 254 nm, 1 h 30): 34.2%
- % E ([1]; 254 nm, 1 h 45): 8.2%
- % Z ([1]; 254 nm, 1 h 45): 38.2%
- % imp 1 ([1]; 254 nm, 1 h 45): 16.5%
- % imp 2 ([1]; 254 nm, 1 h 45): 37.1%
- % E ([1]; 254 nm, 2 h): 8.3%
- % Z ([1]; 254 nm, 2 h): 32.5%
- % imp 1 ([1]; 254 nm, 2 h): 18.2%
- % imp 2 ([1]; 254 nm, 2 h): 41.0%
- % E ([1]; 254 nm, T0): 1.7%
- % Z ([1]; 254 nm, T0): 98.3%
- % imp 1 [1, 3]: 0.0%
- % imp 2 [1, 3]: 0.0%
- % E ([1]; 380 nm, 5 min): 1.6%
- % Z ([1]; 380 nm, 5 min): 98.4%
- % E ([1]; 380 nm, 10 min): 1.7%
- % Z ([1]; 380 nm, 10 min): 98.3%
- % E ([1]; 380 nm, 15 min): 1.6%
- % Z ([1]; 380 nm, 15 min): 98.4%
- % E ([1]; 380 nm, 30 min): 1.8%
- % Z ([1]; 380 nm, 30 min): 98.2%
- % E ([1]; 380 nm, 45 min): 1.9%
- % Z ([1]; 380 nm, 45 min): 98.1%
- % E ([1]; 380 nm, 1 h): 2.0%
- % Z ([1]; 380 nm, 1 h): 98.0%
- % E ([1]; 380 nm, 1 h 15): 2.8%
- % Z ([1]; 380 nm, 1 h 15): 97.2%
- % E ([1]; 380 nm, 1 h 30): 2.9%
- % Z ([1]; 380 nm, 1 h 30): 97.1%
- % E ([1]; 380 nm, 1 h 45): 2.9%
- % Z ([1]; 380 nm, 1 h 45): 97.1%
- % E ([1]; 380 nm, 2 h): 3.3%
- % Z ([1]; 380 nm, 2 h): 96.7%
- % E ([1]; 380 nm, T0): 1.6%
- % Z ([1]; 380 nm, T0): 98.4%
- isomerization process at 254 nm compared with 380 nm ([1]; UV light): faster than at 380 nm
- time in which the isomerization process can be observed under UV light [1]: 5 min
- potency as measured by binding affinity to estrogen receptors, compared with tamoxifen (estrogen receptors): more potency than tamoxifen
- distribution after percutaneous administration [2]: can concentrate in local breast tumors, with very little systemic distribution

Reference: patent US20050208139A1 (Ascend Therapeutics, Inc., priority 2004, published 2005)
